# Assays:
# Experiment in all cases: MIC by microdilution method, non-Helicobacter pylori bacteria
# Assay type in all cases: cell-based
# Parameters in all cases: key: +: Bacterial growth; −: No bacterial growth
# Conditions in all cases: 72 h
# [1] = test system: Pseudomonas aeruginosa (PA01)
# Description: (§1) 2.2 Detection of minimum inhibitory concentration (MIC, 100 µL system) of zinc linolenate for non-Helicobacter pylori bacteria by microdilution method
# (§2) (1) Zinc linolenate (2 mg/mL) is prepared.
# (§3) (3) Bacterial solution preparation: the non-Helicobacter pylori grown in a log phase on a solid plate is taken to make a bacterial suspension with a BHI culture medium, the absorbance (OD600) is adjusted to 0.3 (1×10^8 CFU/mL), and the bacterial suspension is diluted 100 times to 1×10^6 CFU/mL for use.
# (§4) (4) Inoculation of bacterial solution: 10 μL of bacterial solution above is taken and added to the 1-8th wells (the concentration of the bacterial solution per well is about 1.0×10^5 CFU/mL). Culture is performed for 72 h to judge the result. The drug concentrations of the first-seventh wells are 128, 64, 32, 16, 8, 4, and 2 μg/mL, respectively.
# (§5) The experiment only makes sense when the bacteria obviously grow in the 8th well, i.e. the positive control well (without antibiotics). When a single drift occurs in the microdilution method, the maximum drug concentration that inhibits bacterial growth should be recorded. If there are multiple drifts, the results should not be reported and the experiment should be repeated. The experiment is repeated 3 times for each drug.
# [2] = test system: Morganella morganii
# Description: as §1, §2, §3, §4, §5
# [3] = test system: Enterococcus faecium (ATCC19434)
# Description: as §1, §2, §3, §4, §5
# [4] = test system: Mycobacterium smegmatis (MC^2 155)
# Description: as §1, §2, §3, §4, §5
# [5] = test system: Campylobacter jejuni (NCTC11168)
# Description: as §1, §2, §3, §4, §5
# [6] = test system: Shigella dysenteriae
# Description: as §1, §2, §3, §4, §5
# [7] = test system: Actinobacillus actinomycetemcomitans
# Description: as §1, §2, §3, §4, §5
# [8] = test system: Klebsiella pneumoniae (YF173002)
# Description: as §1, §2, §3, §4, §5
# [9] = test system: Lactobacillus
# Description: as §1, §2, §3, §4, §5
# [10] = test system: Proteus mirabilis (YF163006)
# Description: as §1, §2, §3, §4, §5
# [11] = test system: Candida albicans
# Description: as §1, §2, §3, §4, §5
# [12] = test system: Enterococcus faecalis (ATCC19434)
# Description: as §1, §2, §3, §4, §5
# [13] = test system: Salmonella typhi (14028s)
# Description: as §1, §2, §3, §4, §5
# [14] = test system: Acinetobacter baumannii (ATCC19606)
# Description: as §1, §2, §3, §4, §5
structure (smiles),measurement,setting,value
CC/C=C\C/C=C\C/C=C\CCCCCCCC(=O)[O-].CC/C=C\C/C=C\C/C=C\CCCCCCCC(=O)[O-].[Zn+2] [zinc linolenate],Bacterial growth,[1]; zinc linolenate 2 μg/ml,+
same,Bacterial growth,[1]; zinc linolenate 4 μg/ml,+
same,Bacterial growth,[1]; zinc linolenate 8 μg/ml,+
same,Bacterial growth,[1]; zinc linolenate 16 μg/ml,+
same,Bacterial growth,[1]; zinc linolenate 32 μg/ml,+
same,Bacterial growth,[1]; zinc linolenate 64 μg/ml,+
same,Bacterial growth,[1]; zinc linolenate 128 μg/ml,+
same,Bacterial growth,[2]; zinc linolenate 2 μg/ml,+
same,Bacterial growth,[2]; zinc linolenate 4 μg/ml,+
same,Bacterial growth,[2]; zinc linolenate 8 μg/ml,+
same,Bacterial growth,[2]; zinc linolenate 16 μg/ml,+
same,Bacterial growth,[2]; zinc linolenate 32 μg/ml,+
same,Bacterial growth,[2]; zinc linolenate 64 μg/ml,+
same,Bacterial growth,[2]; zinc linolenate 128 μg/ml,−
same,Bacterial growth,[3]; zinc linolenate 2 μg/ml,+
same,Bacterial growth,[3]; zinc linolenate 4 μg/ml,+
same,Bacterial growth,[3]; zinc linolenate 8 μg/ml,+
same,Bacterial growth,[3]; zinc linolenate 16 μg/ml,+
same,Bacterial growth,[3]; zinc linolenate 32 μg/ml,+
same,Bacterial growth,[3]; zinc linolenate 64 μg/ml,+
same,Bacterial growth,[3]; zinc linolenate 128 μg/ml,+
same,Bacterial growth,[4]; zinc linolenate 2 μg/ml,+
same,Bacterial growth,[4]; zinc linolenate 4 μg/ml,+
same,Bacterial growth,[4]; zinc linolenate 8 μg/ml,+
same,Bacterial growth,[4]; zinc linolenate 16 μg/ml,+
same,Bacterial growth,[4]; zinc linolenate 32 μg/ml,+
same,Bacterial growth,[4]; zinc linolenate 64 μg/ml,+
same,Bacterial growth,[4]; zinc linolenate 128 μg/ml,+
same,Bacterial growth,[5]; zinc linolenate 2 μg/ml,+
same,Bacterial growth,[5]; zinc linolenate 4 μg/ml,+
same,Bacterial growth,[5]; zinc linolenate 8 μg/ml,+
same,Bacterial growth,[5]; zinc linolenate 16 μg/ml,+
same,Bacterial growth,[5]; zinc linolenate 32 μg/ml,+
same,Bacterial growth,[5]; zinc linolenate 64 μg/ml,+
same,Bacterial growth,[5]; zinc linolenate 128 μg/ml,+
same,Bacterial growth,[6]; zinc linolenate 2 μg/ml,+
same,Bacterial growth,[6]; zinc linolenate 4 μg/ml,+
same,Bacterial growth,[6]; zinc linolenate 8 μg/ml,+
same,Bacterial growth,[6]; zinc linolenate 16 μg/ml,+
same,Bacterial growth,[6]; zinc linolenate 32 μg/ml,+
same,Bacterial growth,[6]; zinc linolenate 64 μg/ml,+
same,Bacterial growth,[6]; zinc linolenate 128 μg/ml,−
same,Bacterial growth,[7]; zinc linolenate 2 μg/ml,+
same,Bacterial growth,[7]; zinc linolenate 4 μg/ml,+
same,Bacterial growth,[7]; zinc linolenate 8 μg/ml,+
same,Bacterial growth,[7]; zinc linolenate 16 μg/ml,+
same,Bacterial growth,[7]; zinc linolenate 32 μg/ml,+
same,Bacterial growth,[7]; zinc linolenate 64 μg/ml,+
same,Bacterial growth,[7]; zinc linolenate 128 μg/ml,+
same,Bacterial growth,[8]; zinc linolenate 2 μg/ml,+
same,Bacterial growth,[8]; zinc linolenate 4 μg/ml,+
same,Bacterial growth,[8]; zinc linolenate 8 μg/ml,+
same,Bacterial growth,[8]; zinc linolenate 16 μg/ml,+
same,Bacterial growth,[8]; zinc linolenate 32 μg/ml,+
same,Bacterial growth,[8]; zinc linolenate 64 μg/ml,+
same,Bacterial growth,[8]; zinc linolenate 128 μg/ml,−
same,Bacterial growth,[9]; zinc linolenate 2 μg/ml,+
same,Bacterial growth,[9]; zinc linolenate 4 μg/ml,+
same,Bacterial growth,[9]; zinc linolenate 8 μg/ml,+
same,Bacterial growth,[9]; zinc linolenate 16 μg/ml,+
same,Bacterial growth,[9]; zinc linolenate 32 μg/ml,+
same,Bacterial growth,[9]; zinc linolenate 64 μg/ml,+
same,Bacterial growth,[9]; zinc linolenate 128 μg/ml,−
same,Bacterial growth,[10]; zinc linolenate 2 μg/ml,+
same,Bacterial growth,[10]; zinc linolenate 4 μg/ml,+
same,Bacterial growth,[10]; zinc linolenate 8 μg/ml,+
same,Bacterial growth,[10]; zinc linolenate 16 μg/ml,+
same,Bacterial growth,[10]; zinc linolenate 32 μg/ml,+
same,Bacterial growth,[10]; zinc linolenate 64 μg/ml,+
same,Bacterial growth,[10]; zinc linolenate 128 μg/ml,+
same,Bacterial growth,[11]; zinc linolenate 2 μg/ml,+
same,Bacterial growth,[11]; zinc linolenate 4 μg/ml,+
same,Bacterial growth,[11]; zinc linolenate 8 μg/ml,+
same,Bacterial growth,[11]; zinc linolenate 16 μg/ml,+
same,Bacterial growth,[11]; zinc linolenate 32 μg/ml,+
same,Bacterial growth,[11]; zinc linolenate 64 μg/ml,+
same,Bacterial growth,[11]; zinc linolenate 128 μg/ml,+
same,Bacterial growth,[12]; zinc linolenate 2 μg/ml,+
same,Bacterial growth,[12]; zinc linolenate 4 μg/ml,+
same,Bacterial growth,[12]; zinc linolenate 8 μg/ml,+
same,Bacterial growth,[12]; zinc linolenate 16 μg/ml,+
same,Bacterial growth,[12]; zinc linolenate 32 μg/ml,+
same,Bacterial growth,[12]; zinc linolenate 64 μg/ml,+
same,Bacterial growth,[12]; zinc linolenate 128 μg/ml,−
same,Bacterial growth,[13]; zinc linolenate 2 μg/ml,+
same,Bacterial growth,[13]; zinc linolenate 4 μg/ml,+
same,Bacterial growth,[13]; zinc linolenate 8 μg/ml,+
same,Bacterial growth,[13]; zinc linolenate 16 μg/ml,+
same,Bacterial growth,[13]; zinc linolenate 32 μg/ml,+
same,Bacterial growth,[13]; zinc linolenate 64 μg/ml,+
same,Bacterial growth,[13]; zinc linolenate 128 μg/ml,+
same,Bacterial growth,[14]; zinc linolenate 2 μg/ml,+
same,Bacterial growth,[14]; zinc linolenate 4 μg/ml,+
same,Bacterial growth,[14]; zinc linolenate 8 μg/ml,+
same,Bacterial growth,[14]; zinc linolenate 16 μg/ml,+
same,Bacterial growth,[14]; zinc linolenate 32 μg/ml,+
same,Bacterial growth,[14]; zinc linolenate 64 μg/ml,+
same,Bacterial growth,[14]; zinc linolenate 128 μg/ml,+

# Source: US11203563B2, “Preparation of zinc linolenate, and application of zinc linolenate in preparing anti-helicobacter pylori drug” (NANJING MEDICAL UNIVERSITY, priority 2018, dated 2021)
